# Laboratory results taken from patent US10849959B2, “Formulation, dosage form and method of reducing knee pain” (ORTHOTROPHIX, INC., priority 2017, dated 2020).
# Where two headings read alike, the source gives them in different places.
# How the values were obtained:
# [1] = stated as known, no test described, cited from earlier work
# [2] = system: standardized large cartilage defects; conditions: four weekly intra-articular injections, cited from earlier work
# [3] = system: subjects with bilateral patello-femoral knee osteoarthritis
# Protocol: Eighteen (18) orthopedic, rheumatologic and family practice centers in the U.S. participated in the study.
# A Safety Review Committee (SRC) evaluated safety in each dosing cohort. The SRC assessed safety and dose-limiting toxicities, if evident, and determined whether the next higher dosing regimen might be enrolled. Part A were completed and analyzed with regard to safety prior to dose selection and initiation of Part B.
# Six (6) subjects were enrolled in 20, 50, and 100 mg cohorts, respectively, and nine (9) subjects were enrolled in 200 mg cohort. Each dosing cohort was reviewed based on safety analysis of dose groups in Part A.
# No other doses of drug or placebo were administered. All subjects visited their respective clinical sites at 3, 6, and 12 months after the first dosing for their safety and efficacy assessments.
# On the first dosing day, the randomized subjects were assessed for their general health conditions by physical examinations and vital signs. Further, they completed self-reported assessments of the conditions of each of their knees as well as systemic health by the questionnaires of KOOS (Knee injury and Osteoarthritis Outcome Score), which includes subscales of WOMAC (Western Ontario and McMaster Universities Osteoarthritis Index). KOOS is a questionnaire that assesses knee-specific activities of daily living, sports and recreation function, knee-related quality of life, symptom, and knee pain. […] After these assessments, subjects received one intra-articular injection in each knee, with each injection prepared from the vial(s) marked for that knee. One knee received TPX-100, and the contralateral knee received placebo, in a triple-blind fashion (subject, site, and sponsor all blinded to treatment assignment). Subjects were monitored for adverse events during the injections and for a few hours after the injections. Vital signs were also monitored after the injections.
# On the 7th, 14th, and 21st days after the first dosing, subjects received the second, third, and fourth (last) dosing of the same study materials, respectively, as well as safety and adverse event assessments in the same way as the first dosing day.
# Subjects returned to their respective study sites at 3, 6 and 12 months after the first dosing day for follow-up evaluations. In addition, the study sites monitored the subject's condition through telephone contact 9 months after the first dosing day. During the 3, 6, and 12 months post-treatment follow-up on-site visits, subjects were evaluated by physical examination, vital signs, serum chemistry, as well as KOOS. Adverse events and concomitant medications were also recorded.
# [4] = system: subjects with bilateral patello-femoral knee osteoarthritis; assay: Randomized double-blind placebo-controlled clinical study of TPX-100, efficacy by KOOS/WOMAC patient reported outcomes; assay type: in vivo, human; conditions: for Severity of pain going up or down stairs, treated vs placebo-treated knee (in words): p=0.004; for Pain alleviation in other activities or statuses of KOOS pain: activities other than going up or down stairs (and bending knee fully), any time point; for Knee functions, KOOS ADL (Function of Daily Living) and WOMAC function, treated vs placebo-treated knees: both 6 and 12 months after treatment, FIG. 12
# Protocol: For this activity, the peptide of SEQ ID No. 1 was tested for its clinical safety and efficacy on a condition involving cartilage damage in a Phase 2 randomized double-blind controlled clinical trial with mild to severe knee osteoarthritis (OA) patients. See EXAMPLES.
# The KOOS ADL (Function of Daily Living) consists of 17 questions asking degree of difficulty in functioning each knee during 17 different activities in daily living. Those 17 activities are broadly ranged from light to heavy duties. With regard to each activity, difficulty of each knee function is scored in 0-4 range where 0 as no difficulty and 4 as the most difficulty. The sum of the scores range from 0 to 68 (4×17), which is then converted to a 0-100 scale is KOOS ADL score. WOMAC function consists of the same questions with same scoring, except the total score range is not converted to 0-100 but remains 0-68.
# The KOOS pain domain consists of 9 questions and each question is scored in 0-4 range. The sum of the scores, 0-36 (4×9), which is converted to a 0-100 scale to generate a KOOS pain score. While the first of the 9 questions asks for the frequency of knee pain, the other 8 questions ask for severity of knee pain during different activities or positions, where 0 is “never” experiencing pain and 4 is “always” experiencing pain. These 8 activities range from positions with little to no motion such as “at night while in bed” to those with high joint loading such as “going up or down stairs” (See FIG. 2). WOMAC pain consists of the same questions with the same scoring, except that the total score is not converted to a 100-point scale but remains in the range 0-36.
# MRIs of both knees were evaluated by a central reader to determine the ICRS grade (gICRS) of each knee. If the cartilage of patello-femoral compartment in both knees fell within ICRS grades 1-3, or 4 with only focal defects, no defects greater than 1 cm, and all other inclusion criteria were met, with none of the exclusion criteria, the subject was registered. The randomization center randomized each subject to either Right knee active or Left knee active, with the active knee to receive TPX-100 and the contralateral knee to receive identical placebo.
# For enrolled subjects, there was within-subject randomization, such that one knee received active drug injections, and the contralateral knee received identical placebo injections. Using subjects as their own control permits reduction of confounders such as weight, activity level, pain threshold, and uncharacterized genetic susceptibilities to OA progression. As two knees within a person form a matched set, the effects of individual-level confounders that are difficult to quantify (e.g. level of activity, genetic and epigenetic factors, pain threshold) are eliminated, increasing the power of the study to detect a treatment effect if one is present.
# All KOOS subscale scores were analyzed. The primary analysis was carried out using a two-sided paired t-test at the 5% level of significance. The outcome variable was the difference between the change of the score of each subscale of KOOS from baseline in the treated knee (“Index Knee”) and the change from baseline in the placebo-treated knee (“Control Knee”).
# Ninety-three (93) subjects who received 200 mg per dose of TPX-100 in one knee and placebo in contralateral knee were analyzed for efficacy.
# [5] = 12 months, 200 mg, listed as peptide of SEQ ID No. 1
# [6] = 200 mg, listed as peptide of SEQ ID No. 1
sequence,measurement,setting,value
TDLQERGDNDISPFSGDGQPFKD [TPX-100],Analgesic or anti-inflammatory activities,[1],does not have any analgesic or anti-inflammatory activities
same,Analgesic or anti-inflammatory activities,[1]; listed as peptide of SEQ ID No. 1,does not have any anti-inflammatory or analgesic activities
same,Articular cartilage regeneration compared to vehicle control group,"[2]; 125 mg and 250 mg, 6 months post-surgery",histologically-confirmed and statistically significant articular cartilage regeneration
same,Safety and tolerability in goats,[2]; freely ambulatory animals,safe and well-tolerated
same,Dose-limiting toxicities,"[3]; Part A, 20, 50, 100 and 200 mg per intra-articular injection, four weekly",no dose-limiting toxicities
same,Safety and tolerability of treatments,[3]; throughout the study period,safe and well tolerated
same,Severe adverse events related to drug treatment,[3]; throughout the study period,no severe adverse events likely or possibly related to the drug treatment
same,Severity of treatment-related adverse events,[3]; throughout the study period,"mild or moderate, transient"
same,"Function improvement across the 17 activities of KOOS ADL, treated vs placebo-treated knee",[4]; 200 mg,observed in most of the 17 light to heavy activities
same,"Frequency of overall knee pain, Index vs Control knees (in words)","[4]; 12 months, 200 mg",significantly improved (p=0.04)
same,"Severity of pain bending knee fully, treated vs placebo-treated knee (in words)","[4]; 12 months, 200 mg",trend (p<0.09) of improvement
same,"Frequency of overall knee pain, Index vs Control knees (in words)",[4]; [5],significantly reduced
same,"Severity of pain bending knee fully, treated vs placebo-treated knee (in words)",[4]; [5],near statistically significant pain alleviation
same,"Severity of pain going up or down stairs, treated vs placebo-treated knee (in words)","[4]; 12 months, 200 mg",highly significant
same,"Severity of pain going up or down stairs, treated vs placebo-treated knee (in words)",[4]; [5],statistically significant improvement
same,"Score Change from Baseline to 12 Months, Index: How often do you experience RIGHT/LEFT knee pain?","[4]; KOOS Pain Question 1 (frequency, score 0-4), TPX-100 treated knees, 200 mg intra-articular, 4 weekly doses, 12 months",−0.62
same,Difference = [Index score change] − [Control score change]: How often do you experience RIGHT/LEFT knee pain?,"[4]; KOOS Pain Question 1, TPX-100 vs placebo treated knees, baseline to 12 months, 200 mg",−0.26
same,"Score Change from Baseline to 12 Months, Index: Twisting/pivoting on your knee","[4]; KOOS Pain Question 2 (severity, score 0-4), TPX-100 treated knees, 200 mg intra-articular, 4 weekly doses, 12 months",−0.19
same,Difference = [Index score change] − [Control score change]: Twisting/pivoting on your knee,"[4]; KOOS Pain Question 2, TPX-100 vs placebo treated knees, baseline to 12 months, 200 mg",−0.09
same,"Score Change from Baseline to 12 Months, Index: Straightening knee fully moving","[4]; KOOS Pain Question 3 (severity, score 0-4), TPX-100 treated knees, 200 mg intra-articular, 4 weekly doses, 12 months",−0.30
same,Difference = [Index score change] − [Control score change]: Straightening knee fully moving,"[4]; KOOS Pain Question 3, TPX-100 vs placebo treated knees, baseline to 12 months, 200 mg",−0.12
same,"Score Change from Baseline to 12 Months, Index: Bending knee fully","[4]; KOOS Pain Question 4 (severity, score 0-4), TPX-100 treated knees, 200 mg intra-articular, 4 weekly doses, 12 months",−0.45
same,Difference = [Index score change] − [Control score change]: Bending knee fully,"[4]; KOOS Pain Question 4, TPX-100 vs placebo treated knees, baseline to 12 months, 200 mg",−0.24
same,"Score Change from Baseline to 12 Months, Index: Walking on flat surface","[4]; KOOS Pain Question 5 (severity, score 0-4), TPX-100 treated knees, 200 mg intra-articular, 4 weekly doses, 12 months",−0.25
same,Difference = [Index score change] − [Control score change]: Walking on flat surface,"[4]; KOOS Pain Question 5, TPX-100 vs placebo treated knees, baseline to 12 months, 200 mg",−0.12
same,"Score Change from Baseline to 12 Months, Index: Going up or down stairs","[4]; KOOS Pain Question 6 (severity, score 0-4), TPX-100 treated knees, 200 mg intra-articular, 4 weekly doses, 12 months",−0.51
same,Difference = [Index score change] − [Control score change]: Going up or down stairs,"[4]; KOOS Pain Question 6, TPX-100 vs placebo treated knees, baseline to 12 months, 200 mg",−0.33
same,"Score Change from Baseline to 12 Months, Index: At night while in bed","[4]; KOOS Pain Question 7 (severity, score 0-4), TPX-100 treated knees, 200 mg intra-articular, 4 weekly doses, 12 months",−0.19
same,Difference = [Index score change] − [Control score change]: At night while in bed,"[4]; KOOS Pain Question 7, TPX-100 vs placebo treated knees, baseline to 12 months, 200 mg",0.00
same,Difference = [Index score change] − [Control score change]: Sitting or lying,"[4]; KOOS Pain Question 8, TPX-100 vs placebo treated knees, baseline to 12 months, 200 mg",−0.02
same,"Score Change from Baseline to 12 Months, Index: Standing upright","[4]; KOOS Pain Question 9 (severity, score 0-4), TPX-100 treated knees, 200 mg intra-articular, 4 weekly doses, 12 months",−0.34
same,Difference = [Index score change] − [Control score change]: Standing upright,"[4]; KOOS Pain Question 9, TPX-100 vs placebo treated knees, baseline to 12 months, 200 mg",−0.16
same,Pain alleviation in other activities or statuses of KOOS pain,[4]; 200 mg,did not show statistically significant improvements
same,Pain alleviation in other activities or statuses of KOOS pain,[4]; [6],did not show pain alleviation with statistical significance or trend
same,"KOOS Sports and Recreation subscale, Index vs Control knees","[4]; at 6 months, 200 mg",clinically meaningful and statistically significant improvement
same,"KOOS knee related quality of life (QOL) subscale, Index vs Control knees","[4]; at 12 months, 200 mg",clinically meaningful and statistically significant improvement
same,"Total KOOS pain subscale, Index vs Control knees","[4]; at 12 months, 200 mg",clinically meaningful and statistical trend (p<0.09) of improvement
same,"Total KOOS pain subscale, Index vs Control knees","[4]; at 12 months, 200 mg, listed as peptide of SEQ ID No. 1",clinically meaningful improvement
same,"Knee functions, KOOS ADL (Function of Daily Living) and WOMAC function, treated vs placebo-treated knees",[4]; 200 mg,clinically meaningful and statistically significant (p<0.05) improvement
same,"Knee functions, KOOS ADL (Function of Daily Living) and WOMAC function, treated vs placebo-treated knees",[4]; [6],clinically meaningful and highly statistically significant (p=0.008) improvement
same,"Total KOOS pain score, treated vs placebo treated knees","[4]; until 6 months after the treatment, 200 mg",very similar
